# Test results published in patent publication US7935832B2, “Pyrrole and isoindole carboxamide derivatives as P2X7 modulators” (Glaxo Group Limited, priority 2007, dated 2011).
# Biological target: T1, human recombinant P2X7 receptors (Homo sapiens, UniProt Q99572)
# T1 construct: expressed in transfected cells; host or cells: HEK293
# T1 sequence (Q99572 1-595): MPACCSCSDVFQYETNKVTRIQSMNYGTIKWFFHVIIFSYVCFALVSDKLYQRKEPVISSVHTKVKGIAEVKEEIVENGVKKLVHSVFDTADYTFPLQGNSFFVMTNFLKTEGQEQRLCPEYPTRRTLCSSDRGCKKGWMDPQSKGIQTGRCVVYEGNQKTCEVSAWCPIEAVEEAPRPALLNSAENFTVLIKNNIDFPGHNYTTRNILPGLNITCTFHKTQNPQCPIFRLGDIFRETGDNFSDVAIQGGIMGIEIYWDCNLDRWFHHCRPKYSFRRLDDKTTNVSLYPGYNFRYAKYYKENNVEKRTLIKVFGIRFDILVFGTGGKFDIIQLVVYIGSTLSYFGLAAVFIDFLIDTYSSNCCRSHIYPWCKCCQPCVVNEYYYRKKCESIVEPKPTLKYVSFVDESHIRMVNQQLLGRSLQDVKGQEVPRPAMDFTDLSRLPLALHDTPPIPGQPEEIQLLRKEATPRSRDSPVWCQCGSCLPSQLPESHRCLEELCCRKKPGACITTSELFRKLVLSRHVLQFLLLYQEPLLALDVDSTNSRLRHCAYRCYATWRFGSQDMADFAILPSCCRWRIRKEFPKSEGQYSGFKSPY
# Test: Ethidium Accumulation Assay
# Type: cell-based
# Conditions: HEK293 cells expressing human recombinant P2X7; 1 mM ATP, 100 μM ethidium; 30 min preincubation at room temperature; read-out: Antagonist pIC50 for blocking ATP responses (cellular accumulation of ethidium) (converted)
# Experimental: Studies were performed using NaCl assay buffer of the following composition (in mM): 140 mM NaCl, HEPES 10, N-methyl-D-glucamine 5, KCl 5.6, D-glucose 10, CaCl2 0.5 (pH 7.4). HEK293 cells, expressing human recombinant P2X7 receptors, were grown in poly-L-lysine pretreated 96 well plates for 18-24 h. (The cloning of the human P2X7 receptor is described in U.S. Pat. No. 6,133,434). The cells were washed twice with 350 μl of assay buffer before addition of 50 μl of antagonist. The cells were then incubated at room temperature (19-21° C.) for 30 min before addition of ATP and ethidium (100 μM final assay concentration). The ATP concentration was chosen to be close to the EC80 for the receptor type and was 1 mM for studies on the human P2X7 receptor. Incubations were continued for 8 or 16 min and were terminated by addition of 25 μl of 1.3M sucrose containing 5 mM of the P2X7 receptor antagonist reactive black 5 (Aldrich). Cellular accumulation of ethidium was determined by measuring fluorescence (excitation wavelength of 530 nm and emission wavelength of 620 nm) from below the plate with a Canberra Packard Fluorocount (Pangbourne, UK). Antagonist pIC50 values for blocking ATP responses were determined using iterative curve fitting techniques.
row,Compound,IC50 [nM]
1,"CN1C(=O)c2ccccc2C1C(=O)NCc1cccc(C(F)(F)F)c1Cl (stereo not drawn) [Example 7, N-{[2-chloro-3-(trifluoromethyl)phenyl]methyl}-2-methyl-3-oxo-2,3-dihydro-1H-isoindole-1-carboxamide]",≤ 126
2,"CN1C(=O)c2ccccc2C1C(=O)NCc1ccc(Cl)cc1Cl (stereo not drawn) [Example 5, N-[(2,4-dichlorophenyl)methyl]-2-methyl-3-oxo-2,3-dihydro-1H-isoindole-1-carboxamide]",≤ 126
3,"CCN1C(=O)c2ccccc2C1C(=O)NCc1cccc(C(F)(F)F)c1Cl (stereo not drawn) [Example 4, N-{[2-chloro-3-(trifluoromethyl)phenyl]methyl}-2-ethyl-3-oxo-2,3-dihydro-1H-isoindole-1-carboxamide]",≤ 126
4,"CN1C(=O)c2ccccc2C1C(=O)NCc1ccc(F)cc1Cl (stereo not drawn) [Example 6, N-[(2-chloro-4-fluorophenyl)methyl]-2-methyl-3-oxo-2,3-dihydro-1H-isoindole-1-carboxamide]",≤ 631
5,"CC1=CC(=O)N(C2CC2)C1C(=O)NCc1ccc(Cl)cc1Cl (stereo not drawn) [Example 1, 1-cyclopropyl-N-[(2,4-dichlorophenyl)methyl]-3-methyl-5-oxo-2,5-dihydro-1H-pyrrole-2-carboxamide]",≤ 631
6,"CCN1C(=O)c2ccccc2C1C(=O)NCc1ccc(Cl)cc1Cl (stereo not drawn) [Example 2, N-[(2,4-dichlorophenyl)methyl]-2-ethyl-3-oxo-2,3-dihydro-1H-isoindole-1-carboxamide]",≤ 631
